Values quoted from earlier work, collected in patent US20030108495A1, “Cosmetic compositions containing 2,2-dihydroxymethy1-1,3-dioxolanes” (priority 2001, published 2003).

System: moisturized human skin
Details: cosmetic composition applied to moisturized human skin

In the case of `O=C(CO)CO` [DHA, 1,3-dihydroxyacetone], the “time after initial application until tan appearance (brown-colored melanoidins)” value is given as “approximately five”.
